US20080160006A1, “Nutrient Medium for Maintaining Neural Cells in Injured Nervous System” (priority 2001, published 2008)

Columns and labels:
[1] = test system: human cortical brain cells (neurons vs glia); assay: Adult human cortical brain cells cultured in B27/Neurobasal A, immunostained for neurofilament and GFAP; format: cell-based; conditions: for % GFAP (mean ± S.D.) / % Neurofilament (mean ± S.D.): addition to B27/Neurobasal A, after 6 days
Text: (§1) GENERAL METHODS. Brain tissue was ethically obtained by informed consent from patients before surgery under protocols approved by the Springfield Committee for Research on Human Subjects and the UC Irvine IRB. […] Rather than using aspiration to remove all tissue, slices of tissue 1-3 mm thick were obtained from cortical access ports or tissue that was marginal to the lesion. Use of electrocautery was kept to a minimum to reduce oxyradicals and other neuron damage. […] Hibernate A contains D-glucose, pyruvate, balanced salts, amino acids, and vitamins. B27 contains 5 antioxidants and 15 other components. […] After transport on ice to a laminar flow sterile hood in the culture laboratory, meninges and white matter were removed from the tissue with a scalpel and forceps in a 35 mm dish in 2 ml transport medium. […] The cell suspension was enriched for neurons by centrifugation on a density gradient of Optiprep (Invitrogen). […] The diluted Optiprep was further diluted with transport medium (v/v) to make a gradient containing 4 steps of 1 ml in a 15 ml centrifuge tube: bottom (0.35:0.65), 0.25:0.75, 0.2:0.8, top (0.15:0.85). Up to 6 ml of cell suspension was layered over the Optiprep step gradient. […] Cells were plated at a density of 320/mm^2 onto glass coverslips coated with polylysine as previously described. Cells were cultured in Neurobasal™ A medium (Invitrogen) with 2 percent B27, 5 ng/ml FGF2 (basic human recombinant fibroblast growth factor, Invitrogen) and 0.5 mM glutamine in a humidified atmosphere of 9 percent O2, and 5 percent CO2 (Forma, Marietta, Ohio). […] EGF (20 ng/ml; murine, Invitrogen) and NT3 (100 ng/ml; recombinant, Regeneron) were added as indicated from 500× stock solutions in 1 percent BSA/PBS. Half of the medium was replaced with fresh medium every 3-4 days.
For immunocytology, cultures were rinsed twice in warm PBS and fixed for 10 minutes in 4 percent paraformaldehyde in PBS. After rinsing twice with PBS, cells for GFAP staining were postfixed for 20 minutes in acetic acid/ethanol (1:9, v/v) before rinsing again with PBS. Non-specific sites were blocked, and cells were permeabilized for 5 minutes in 5 percent normal goat serum, and 0.5 percent Triton X-100. Cells were incubated with primary antibodies for 1 hour at 22° C. in 5 percent goat serum, and 0.05 percent Triton as follows: mouse anti-neurofilament 200 (1:40, Sigma) with rabbit anti-cow GFAP (1:2000, Dako), or mouse anti-MAP2 (1:250, Boeringer-Mannheim) with rabbit anti-tau (1:2000). After rinsing four times with PBS, cells were incubated 1 hour at 22° C. with a rhodamine-conjugate of goat anti-rabbit IgG (heavy+light chain, 1:500, Tago) together with a cy2-conjugate of goat anti-mouse IgG (heavy+light chain, 1:100, Jackson). After rinsing four times in PBS, coverslips were mounted with Aquamount and imaged through a Nikon 60×/1.4 objective using a Spot cooled CCD camera (Diagnostic Instruments).
Human cortical brain tissue was obtained for culture from eleven consecutive surgical cases, including seven tumor cases, three cases of epilepsy, and one case of suprabulbar palsy. Patients ranged in age from 41 to 70 years.
Neuronal Characteristics of Isolated Cells. Cytoskeletal components were used as specific markers to distinguish neurons from glia. Microtubule associated proteins, MAP2 and tau, are generally associated with somatodendritic and axonal regions of neurons, respectively. Neurofilament 200 is a common intermediate filament protein restricted to neurons, and GFAP is restricted to astroglia. All preparations were immunostained for at least one of these markers.

human neurons = assay: Survival of human neurons versus FGF2 concentration with or without DHEAS (FIG. 1); format: cell-based
Text: as §1

[2] = surgical sample 1, glioma r. temporal, 46 M
[3] = surgical sample 2, tumor r. temporal, 69 M

EGF: trophic factor EGF, murine, Invitrogen (NSYPGCPSSYDGYCLNGGVCMHIESLDSYTCNCVIGYSGDRCQTRDLRWWELR; Epidermal growth factor; UniProt P01132 977-1029, looked up)
survival of neurofilament positive cells versus FGF2 alone ([1]; added in addition to FGF2, sample 4): no more efficacious

FGF2: basic human recombinant fibroblast growth factor, Invitrogen
% GFAP (mean ± S.D.) [1, 2]: 30 ± 7% | % Neurofilament (mean ± S.D.) [1, 2]: 67±7% | % GFAP (mean ± S.D.) [1, 3]: > 80% | % Neurofilament (mean ± S.D.) [1, 3]: < 10% | % Neurofilament (mean ± S.D.) ([1]; surgical sample 3, glioma l. frontal, 41 M): 84 ± 8% | % Neurofilament (mean ± S.D.) ([1]; surgical sample 4, epilepsy l. superior temp. gyrus, 33 F): 16 ± 5% | % Neurofilament (mean ± S.D.) ([1]; surgical sample 5, meningioma r. temporal, 70 µM): 17 ± 10%

C[C@]12CC[C@H](OS(=O)(=O)O)CC1=CC[C@@H]1[C@@H]2CC[C@]2(C)C(=O)CC[C@@H]12 [DHEAS, dehydroepiandrosterone 3-sulphate]
lowering of the FGF2 ED50 for survival (human neurons; DHEAS at 10 μg/ml): 10 fold | survival at intermediate DHEAS concentrations (human neurons; DHEAS at 1 and 3 μg/ml, data not shown): intermediate survival between 0 and 10 μg/ml | survival with FGF2 at lower concentrations (FIG. 1) (human neurons; lower FGF2 concentrations): synergistic for survival with FGF2
